# In patent US20080051429A1, “USE OF 4-AMINO-PIPERIDINES FOR TREATING SLEEP DISORDERS” (priority 2006, published 2008):
# How the values were obtained:
# healthy volunteers [1] = experiment: Continuous Performance Test (CPT); format: in vivo, human
# Description: Performance Assessment: A Continuous Performance Test (CPT; Rosvold M E, Mirsky A F, Sarason I, Bransome E R Jr., Beck L H (1956) A continuous performance test for brain damage. J Consult Psychol 20:343-350, which is incorporated herein by reference in its entirety), was used to evaluate attention and vigilance. The test was administered both during the evening and the morning following the baseline PSG on Day 1 and the evaluation PSG on Day 13. Participants were rapidly presented a numerical train with a target number as point of reference. Participants pushed a button rapidly when the target number appeared in the number list. The procedure lasted three minutes. The number of targets detected and the number of false alarms were assessed.
# healthy volunteers [2] = experiment: Polysomnography (PSG) sleep study, double-blind, placebo-controlled; format: in vivo, human
# Description: A double-blind, placebo-controlled study involving 45 healthy volunteers ranging in age from 40 to 64 was conducted. […] All subjects underwent a two-night screening and baseline PSG evaluation. Additional PSG measurements were performed on the evening of study days 1 and 13. The subjects also completed a Continuous Performance Test (CPT) to assess the potential impact on daytime functioning. […] Of the 45 subjects, 20 of them also underwent a positron emission tomography (PET) study to measure 5-HT2A brain receptor occupancy.
# During an assessment period, participants stayed overnight in the clinic for […] from Day −1 to Day 2 and one night from Day 13 to Day 14. Participants underwent a one-night PSG evaluation on the evening of Day 1, following the first dose of treatment and a final one-night PSG evaluation on the evening of Day 13. Between Day 3 and Day 12, participants were at home.
# Polysomnographic recordings were performed from 23:00 to 07:00 on the following day.
# The drug was dispensed as a solution (in vials) per os (p.o.), in a double-blind fashion as determined by the randomization schedule. The content of the vials was completely consumed followed by the consumption of one vial of water.
# Data Analysis: A multivariate analyses of variance (MANOVA) with 5 clusters of sleep parameters as dependent variables (sleep continuity architecture and profile parameters for the visual analysis, and NREM and REM parameters for the spectral power analysis as shown in Table 1) was conducted initially. Change from baseline to the last day of drug administration was assessed by an analysis of covariance with repeated measures (ANCOVA®), with the baseline variables as covariates, to detect group differences (drug at each dose versus placebo) in the PSG sleep findings. For each ANCOVA, two main effects (Treatment, 4 levels, and Study Day, 2 levels) and their interaction were analyzed. Drug to placebo contrasts were calculated as a whole (Day 1 and Day 13 combined) as well as separately for each Study Day. Change from baseline to the last day of drug administration, by group, on the results of the CPT was also analyzed. Additional pharmacodynamic analysis, including the electrographic results obtained on Study Day 1, was performed. SAS® Version 8.2 was used for non-pharmacokinetic parameters and WinNonLin V4.0 was used to compute all pharmacokinetic parameters.
structure (smiles),measurement,setting,value
CC(C)COc1ccc(CNC(=O)N(Cc2ccc(F)cc2)C2CCN(C)CC2)cc1 [N-(1-methylpiperidin-4-yl)-N-(4-fluorophenylmethyl)-N′-(4-(2-methylpropyloxy)phenylmethyl)carbamide],CPT detected targets and false alarm change scores,"healthy volunteers [1]; any dose, evening and morning (p>0.10)",absence of effect
same,daytime functioning,healthy volunteers [1]; in words,did not impair
same,Change in Slow Wave Sleep From Baseline,"healthy volunteers [2]; 1 mg, Day 1",6.4 min
same,"Change in Slow Wave Sleep From Baseline, Percentage","healthy volunteers [2]; 1 mg, Day 1",10%
same,Duration (min) of wake after sleep onset,"healthy volunteers [2]; 1 mg, Day 1",47.67 min
same,Number of awakenings after sleep onset,"healthy volunteers [2]; 1 mg, Day 1",20.22
same,SWS duration,"healthy volunteers [2]; 1 mg, Day 1",69.78 min
same,Change in Slow Wave Sleep From Baseline,"healthy volunteers [2]; 1 mg, Day 13",5.4 min
same,"Change in Slow Wave Sleep From Baseline, Percentage","healthy volunteers [2]; 1 mg, Day 13",9%
same,Duration (min) of wake after sleep onset,"healthy volunteers [2]; 1 mg, Day 13",40.06 min
same,Number of awakenings after sleep onset,"healthy volunteers [2]; 1 mg, Day 13",20.78
same,SWS duration,"healthy volunteers [2]; 1 mg, Day 13",68.78 min
same,NREM sleep %,"healthy volunteers [2]; 2.5 mg, C","↑ (↑, <.05)"
same,NREM sleep duration,"healthy volunteers [2]; 2.5 mg, C","↑ (↑, <.05)"
same,SWS 2nd third,"healthy volunteers [2]; 2.5 mg, C","↑↑ (↑↑, <.01)"
same,SWS %,"healthy volunteers [2]; 2.5 mg, C","↑↑ (↑↑, <.01)"
same,Stage 3%,"healthy volunteers [2]; 2.5 mg, C","↑ (↑, <.05)"
same,Stage 3 duration,"healthy volunteers [2]; 2.5 mg, C","↑ (↑, <.05)"
same,Stage 4%,"healthy volunteers [2]; 2.5 mg, C","↑ (↑, <.05)"
same,Stage 4 duration,"healthy volunteers [2]; 2.5 mg, C","↑ (↑, <.05)"
same,SWS 2nd third,"healthy volunteers [2]; 2.5 mg, D1","↑ (↑, <.05)"
same,SWS %,"healthy volunteers [2]; 2.5 mg, D1","↑ (↑, <.05)"
same,Stage 3%,"healthy volunteers [2]; 2.5 mg, D1","↑ (↑, <.05)"
same,Stage 3 duration,"healthy volunteers [2]; 2.5 mg, D1","↑ (↑, <.05)"
same,NREM sleep %,"healthy volunteers [2]; 2.5 mg, D13","↑↑ (↑↑, <.01)"
same,NREM sleep duration,"healthy volunteers [2]; 2.5 mg, D13","↑ (↑, <.05)"
same,Change in Slow Wave Sleep From Baseline,"healthy volunteers [2]; 2.5 mg, Day 1",21.8 min
same,"Change in Slow Wave Sleep From Baseline, Percentage","healthy volunteers [2]; 2.5 mg, Day 1",40%
same,Duration (min) of wake after sleep onset,"healthy volunteers [2]; 2.5 mg, Day 1",51.00 min
same,Number of awakenings after sleep onset,"healthy volunteers [2]; 2.5 mg, Day 1",21.44
same,SWS duration,"healthy volunteers [2]; 2.5 mg, Day 1",75.83 min
same,Change in Slow Wave Sleep From Baseline,"healthy volunteers [2]; 2.5 mg, Day 13",19.6 min
same,"Change in Slow Wave Sleep From Baseline, Percentage","healthy volunteers [2]; 2.5 mg, Day 13",36%
same,Duration (min) of wake after sleep onset,"healthy volunteers [2]; 2.5 mg, Day 13",30.44 min
same,Number of awakenings after sleep onset,"healthy volunteers [2]; 2.5 mg, Day 13",19.78
same,SWS duration,"healthy volunteers [2]; 2.5 mg, Day 13",73.61 min
same,SWS 1st third,"healthy volunteers [2]; 5 mg, C","↑↑ (↑↑, <.01)"
same,SWS 2nd third,"healthy volunteers [2]; 5 mg, C","↑↑ (↑↑, <.01)"
same,SWS %,"healthy volunteers [2]; 5 mg, C","↑↑ (↑↑, <.01)"
same,Stage 1%,"healthy volunteers [2]; 5 mg, C","↓ (↓, <.05)"
same,Stage 2%,"healthy volunteers [2]; 5 mg, C","↓ (↓, <.05)"
same,Stage 3%,"healthy volunteers [2]; 5 mg, C","↑ (↑, <.05)"
same,Stage 3 duration,"healthy volunteers [2]; 5 mg, C","↑ (↑, <.05)"
same,Stage 4%,"healthy volunteers [2]; 5 mg, C","↑↑ (↑↑, <.01)"
same,Stage 4 duration,"healthy volunteers [2]; 5 mg, C","↑↑ (↑↑, <.01)"
same,SWS 1st third,"healthy volunteers [2]; 5 mg, D1","↑↑ (↑↑, <.01)"
same,SWS %,"healthy volunteers [2]; 5 mg, D1","↑↑ (↑↑, <.01)"
same,Stage 1%,"healthy volunteers [2]; 5 mg, D1","↓ (↓, <.05)"
same,Stage 2%,"healthy volunteers [2]; 5 mg, D1","↓ (↓, <.05)"
same,Stage 3%,"healthy volunteers [2]; 5 mg, D1","↑ (↑, <.05)"
same,Stage 3 duration,"healthy volunteers [2]; 5 mg, D1","↑ (↑, <.05)"
same,Stage 4%,"healthy volunteers [2]; 5 mg, D1","↑↑ (↑↑, <.01)"
same,Stage 4 duration,"healthy volunteers [2]; 5 mg, D1","↑↑ (↑↑, <.01)"
same,SWS 1st third,"healthy volunteers [2]; 5 mg, D13","↑ (↑, <.05)"
same,SWS 2nd third,"healthy volunteers [2]; 5 mg, D13","↑ (↑, <.05)"
same,SWS %,"healthy volunteers [2]; 5 mg, D13","↑↑ (↑↑, <.01)"
same,Stage 4%,"healthy volunteers [2]; 5 mg, D13","↑↑ (↑↑, <.01)"
same,Stage 4 duration,"healthy volunteers [2]; 5 mg, D13","↑↑ (↑↑, <.01)"
same,Change in Slow Wave Sleep From Baseline,"healthy volunteers [2]; 5 mg, Day 1",37.3 min
same,"Change in Slow Wave Sleep From Baseline, Percentage","healthy volunteers [2]; 5 mg, Day 1",65%
same,Duration (min) of wake after sleep onset,"healthy volunteers [2]; 5 mg, Day 1",64.56 min
same,Number of awakenings after sleep onset,"healthy volunteers [2]; 5 mg, Day 1",20.67
same,SWS duration,"healthy volunteers [2]; 5 mg, Day 1",94.89 min
same,Change in Slow Wave Sleep From Baseline,"healthy volunteers [2]; 5 mg, Day 13",41.9 min
same,"Change in Slow Wave Sleep From Baseline, Percentage","healthy volunteers [2]; 5 mg, Day 13",73%
same,Duration (min) of wake after sleep onset,"healthy volunteers [2]; 5 mg, Day 13",43.89 min
same,Number of awakenings after sleep onset,"healthy volunteers [2]; 5 mg, Day 13",21.78
same,SWS duration,"healthy volunteers [2]; 5 mg, Day 13",99.56 min
same,duration and proportion of wake after sleep onset,healthy volunteers [2]; 20 mg,decreased
same,NREM sleep %,"healthy volunteers [2]; 20 mg, C","↑↑ (↑↑, <.01)"
same,NREM sleep duration,"healthy volunteers [2]; 20 mg, C","↑ (↑, <.05)"
same,SWS 1st third,"healthy volunteers [2]; 20 mg, C","↑↑ (↑↑, <.01)"
same,SWS 2nd third,"healthy volunteers [2]; 20 mg, C","↑↑ (↑↑, <.01)"
same,SWS %,"healthy volunteers [2]; 20 mg, C","↑↑ (↑↑, <.01)"
same,Stage 2 duration,"healthy volunteers [2]; 20 mg, C","↓ (↓, <.05)"
same,Stage 3%,"healthy volunteers [2]; 20 mg, C","↑ (↑, <.05)"
same,Stage 3 duration,"healthy volunteers [2]; 20 mg, C","↑ (↑, <.05)"
same,Stage 4%,"healthy volunteers [2]; 20 mg, C","↑↑ (↑↑, <.01)"
same,Stage 4 duration,"healthy volunteers [2]; 20 mg, C","↑↑ (↑↑, <.01)"
same,SWS 2nd third,"healthy volunteers [2]; 20 mg, D1","↑↑ (↑↑, <.01)"
same,SWS %,"healthy volunteers [2]; 20 mg, D1","↑↑ (↑↑, <.01)"
same,Stage 2 duration,"healthy volunteers [2]; 20 mg, D1","↓ (↓, <.05)"
same,Stage 4%,"healthy volunteers [2]; 20 mg, D1","↑↑ (↑↑, <.01)"
same,Stage 4 duration,"healthy volunteers [2]; 20 mg, D1","↑↑ (↑↑, <.01)"
same,NREM sleep %,"healthy volunteers [2]; 20 mg, D13","↑↑ (↑↑, <.01)"
same,SWS 2nd third,"healthy volunteers [2]; 20 mg, D13","↑↑ (↑↑, <.01)"
same,SWS %,"healthy volunteers [2]; 20 mg, D13","↑↑ (↑↑, <.01)"
same,Stage 4%,"healthy volunteers [2]; 20 mg, D13","↑↑ (↑↑, <.01)"
same,Stage 4 duration,"healthy volunteers [2]; 20 mg, D13","↑↑ (↑↑, <.01)"
same,Change in Slow Wave Sleep From Baseline,"healthy volunteers [2]; 20 mg, Day 1",46.0 min
same,"Change in Slow Wave Sleep From Baseline, Percentage","healthy volunteers [2]; 20 mg, Day 1",55%
same,Duration (min) of wake after sleep onset,"healthy volunteers [2]; 20 mg, Day 1",33.44 min
same,Number of awakenings after sleep onset,"healthy volunteers [2]; 20 mg, Day 1",20.89
same,SWS duration,"healthy volunteers [2]; 20 mg, Day 1",129.94 min
same,Change in Slow Wave Sleep From Baseline,"healthy volunteers [2]; 20 mg, Day 13",39.0 min
same,"Change in Slow Wave Sleep From Baseline, Percentage","healthy volunteers [2]; 20 mg, Day 13",46%
same,Duration (min) of wake after sleep onset,"healthy volunteers [2]; 20 mg, Day 13",29.89 min
same,Number of awakenings after sleep onset,"healthy volunteers [2]; 20 mg, Day 13",18.89
same,SWS duration,"healthy volunteers [2]; 20 mg, Day 13",122.94 min
same,"REM sleep duration, proportion of REM sleep, REM sleep latency, REM activity or REM density",healthy volunteers [2]; in words,no effect
same,latency to sleep onset,healthy volunteers [2]; in words,did not alter
same,"number of awakenings after sleep onset, drug to placebo contrasts","healthy volunteers [2]; the 4 doses, most significant in 2.5 mg and 5 mg groups",significantly decreased
